Reference: paper PMC9788418, “Design, Synthesis and Biological Evaluation of Syn and Anti-like Double Warhead Quinolinones Bearing Dihydroxy Naphthalene Moiety as Epidermal Growth Factor Receptor Inhibitors with Potential Apoptotic Antiproliferative Action” (Molecules, 2022)

Tests used:
Assay type in all cases: cell-based, human
[1] = Cell viability assay (MTT) on normal cell line; settings: human, MCF-10A mammary gland epithelial cells, four days
Description: A cell viability test was performed using MCF-10A (human mammary gland epithelial) cell line to investigate the effect of 4a–e and 7a–e on normal cell lines. In this investigation, a concentration of 50 µM of the studied compound is employed for four days, after which cell viability is assessed.
(§1) 4.2. Biological evaluation
4.2.1. Cytotoxic activity using MTT Assay and evaluation of IC50
MTT assay was carried out to study the effect of compounds on mammary epithelial cells (MCF-10A). The medium in which cells were propagated contained Dulbecco's modified Eagle's medium (DMEM)/ Ham's F-12 medium (1:1) supplemented with epidermal growth factor (20 ng/mL), hydrocortisone (500 ng/mL), insulin (10 μg/mL), 2 mM glutamine and 10% foetal calf serum. After every 2-3 days, the cells were passaged using trypsin ethylenediamine tetra acetic acid (EDTA). The cells were seeded at a density of 10^4 cells mL-1 in flat-bottomed culture plates containing 96 wells each. After 24 h, medium was removed from the plates and the compounds in (in 0.1% DMSO) were added (in 200 μL medium to yield a final concentration of 0.1% v/v) to the wells of plates. A single compound was designated with four wells followed by incubation of plates for 96h at 37°C. After incubation, medium was removed completely from the plates followed by addition of MTT (0.4 mg/mL in medium) to each well and subsequent incubation of plates for 3h. MTT (along with the medium) was removed and DMSO (150μL) was added to each well of the culture plates, followed by vortexing and subsequent measurement of absorbance (at 540 nm) using microplate reader. […]

[2] = system: four tested cancer cell lines (A-549, MCF-7, Panc-1, HT-29); assay: Antiproliferative assay, average over the four cell lines; settings: for GI50: Homo sapiens, mean of the four cancer cell lines; for fold less potent than 4a (GI50): relative to 4a
Description: The newly synthesized compounds were tested for antiproliferative activity against four different types of cancer cells: A-549 (epithelial cancer cell line), MCF-7 (breast cancer cell line), Panc-1 (pancreas cancer cell line), and HT-29 (colon cancer cell line).
After 24 h, medium was removed from the plates and the compounds in (in 0.1% DMSO) were added (in 200 μL medium to yield a final concentration of 0.1% v/v) to the wells of plates. A single compound was designated with four wells followed by incubation of plates for 96h at 37°C. After incubation, medium was removed completely from the plates followed by addition of MTT (0.4 mg/mL in medium) to each well and subsequent incubation of plates for 3h. MTT (along with the medium) was removed and DMSO (150μL) was added to each well of the culture plates, followed by vortexing and subsequent measurement of absorbance (at 540 nm) using microplate reader. The data are shown as percentage inhibition of proliferation in comparison with controls containing 0.1% 4.2.1.2. Assay for antiproliferative effect
To explore the antiproliferative potential of compounds MTT assay was performed according to previously reported procedure using different cell lines to explore the antiproliferative potential of compounds propidium iodide fluorescence assay was performed using different cell lines. To calculate the total nuclear DNA, a fluorescent dye (propidium iodide, PI) is used which can attach to the DNA, thus offering a quick and precise technique. PI cannot pass through the cell membrane and its signal intensity can be considered as directly proportional to quantity of cellular DNA. Cells whose cell membranes are damaged or have changed permeability are counted as dead ones. The assay was performed by seeding the cells of different cell lines at a density of 3000-7500 cells/well (in 200µl medium) in culture plates followed by incubation for 24h at 37 °C in humidified 5% CO2/95% air atmospheric conditions. The medium was removed; the compounds were added to the plates at 10 µM concentrations (in 0.1% DMSO) in triplicates, followed by incubation for 48 h. DMSO (0.1%) was used as control. After incubation, medium was removed followed by the addition of PI (25 µl, 50µg/mL in water/medium) to each well of the plates. At -80 °C, the plates were allowed to freeze for 24 h, followed by thawing at 25 °C. A fluorometer (Polar-Star BMG Tech) was used to record the readings at excitation and emission wavelengths of 530 and 620 nm for each well. The percentage cytotoxicity of compounds was calculated using the following formula:
Where ATC= Absorbance of treated cells and AC= Absorbance of control. Erlotinib was used as positive control in the assay.

[3] = system: MCF-7 (breast cancer cell line); assay: Antiproliferative assay; settings: Homo sapiens, MCF7; read-out: Antiproliferative Activity IC50 ± SEM, MCF-7
Description: (§2) 4.2.1.2. Assay for antiproliferative effect
(§3) To explore the antiproliferative potential of compounds MTT assay was performed according to previously reported procedure using different cell lines to explore the antiproliferative potential of compounds propidium iodide fluorescence assay was performed using different cell lines. To calculate the total nuclear DNA, a fluorescent dye (propidium iodide, PI) is used which can attach to the DNA, thus offering a quick and precise technique. PI cannot pass through the cell membrane and its signal intensity can be considered as directly proportional to quantity of cellular DNA. Cells whose cell membranes are damaged or have changed permeability are counted as dead ones. The assay was performed by seeding the cells of different cell lines at a density of 3000-7500 cells/well (in 200µl […]
(§4) atmospheric conditions. The medium was removed; the compounds were added to the plates at 10 µM concentrations (in 0.1% DMSO) in triplicates, followed by incubation for 48 h. DMSO (0.1%) was used as control. After incubation, medium was removed followed by the addition of PI (25 µl, 50µg/mL in water/medium) to each well of the plates. At -80 °C, the plates were allowed to freeze for 24 h, followed by thawing at 25 °C. A fluorometer (Polar-Star BMG Tech) was used to record the readings at excitation and emission wavelengths of 530 and 620 nm for each well. The percentage cytotoxicity of compounds was calculated using the following formula:
(§5) Where ATC= Absorbance of treated cells and AC= Absorbance of control. […]
(§6) positive control in the assay.

[4] = system: HT-29 (colon cancer cell line); assay: Antiproliferative assay; settings: Homo sapiens, read-out: Antiproliferative Activity IC50 ± SEM, HT-29
Description: as §2, §3, §4, §5, §6

[5] = system: A-549 (epithelial cancer cell line); assay: Antiproliferative assay; settings: Homo sapiens, A549; read-out: Antiproliferative Activity IC50 ± SEM, A-549
Description: as §2, §3, §4, §5, §6

[6] = system: Panc-1 (pancreas cancer cell line); assay: Antiproliferative assay; settings: Homo sapiens, PANC-1; read-out: Antiproliferative Activity IC50 ± SEM, Panc-1
Description: as §1
4.2.1. Cytotoxic activity using MTT Assay and evaluation of IC50 […]
cells were seeded at a density of 10^4 cells mL-1 in flat-bottomed culture plates containing 96 wells each. After 24 h, medium was removed from the plates and the compounds in (in 0.1% DMSO) were added (in 200 μL medium to yield a final concentration of 0.1% v/v) to the wells of plates. A single […]
incubation, medium was removed completely from the plates followed by addition of MTT (0.4 mg/mL in medium) to each well and subsequent incubation of plates for 3h. MTT (along with the medium) was removed and DMSO (150μL) was added to each well of the culture plates, followed by vortexing and subsequent measurement of absorbance (at 540 nm) using microplate reader. The data […]
as §2, §3, §4, §5, §6

GI50 [2]	fold less potent than 4a (GI50) [2]	IC50 [3]	IC50 [4]	IC50 [5]	IC50 [6]	Structure (SMILES)	viability at 96 h, 50 µM [1]
130 nM	approximately 4 fold	127 ± 12 nM	137 ± 13 nM	123 ± 12 nM	135 ± 13 nM	Cn1c(=O)cc(-n2cc(COc3cccc4cccc(OCc5cn(-c6cc(=O)n(C)c7ccccc67)nn5)c34)nn2)c2ccccc21 [Compound 4e, 4,4′-(((naphthalene-1,8-diylbis(oxy))bis(methylene))bis(1H-1,2,3-triazole-4,1-diyl))-bis-(1-methylquinolin-2(1H)-one)]	90%
65 nM		65 ± 6 nM	67 ± 6 nM	63 ± 6 nM	67 ± 6 nM	Cc1ccc2[nH]c(=O)cc(-n3cc(COc4cccc5c(OCc6cn(-c7cc(=O)[nH]c8ccc(C)cc78)nn6)cccc45)nn3)c2c1 [Compound 7b, 4,4′-(((naphthalene-1,5-diylbis(oxy))bis(methylene))bis(1H-1,2,3-triazole-4,1-diyl))-bis-(6-methylquinolin-2(1H)-one)]	93%
134 nM	approximately 4 fold	130 ± 13 nM	143 ± 14 nM	126 ± 13 nM	136 ± 13 nM	Cn1c(=O)cc(-n2cc(COc3cccc4c(OCc5cn(-c6cc(=O)n(C)c7ccccc67)nn5)cccc34)nn2)c2ccccc21 [Compound 7e, 4,4′-(((naphthalene-1,5-diylbis(oxy))bis(methylene))bis(1H-1,2,3-triazole-4,1-diyl))-bis-(1-methylquinolin-2(1H)-one)]	85%

Structure (SMILES)	GI50 [2]	fold less potent than 4a (GI50) [2]	IC50 [3]	IC50 [4]	IC50 [5]	IC50 [6]	viability at 96 h, 50 µM [1]
C#Cc1cccc(Nc2ncnc3cc(OCCOC)c(OCCOC)cc23)c1 [Erlotinib, reference compound]	33 nM						
